Patent publication US20120329832A1, “Novel Insect-Repellent Coumarin Derivatives, Syntheses, and Methods of Use” (priority 2011, published 2012)
Read-outs that look alike come from different tables or passages of the source.

Experiments:
drosophila = experiment: Tests in vivo on drosophila: two-tube repellency test, Repulsive Index; design: key to RI against drosophila (FIG. 1) / RI (FIG. 2 and 3): RI = (N1−N2)/(N1+N2); N1 solvent tube, N2 compound tube; details: for repellent or attractant activity against drosophila, in words: in vivo; for repellent activity compared with DEET, in words: 1% concentration in EtOH; for RI against drosophila (FIG. 1): concentration not given
Procedure: Description of Test system. To evaluate repellent efficacy, compounds were added to test chambers, each containing 40 drosophila. The test was performed in 3 phases: 1) fast (flies aspirated to test tubes); 2) implementation of the system (addition of filter paper, addition of solvent containing test compound); and 3) counting of the flies (after 22 hours exposure to test compound). The number of drosophila in each tube were counted: number of flies in the “filter paper+Solvent” tube was designated N1 and the number of flies in the “filter paper impregnated with test compound” was designated N2.
The Repulsive Index (R1) is given by the following equation: (N1−N2)/(N1+N2).

Aedes mosquitoes = details: cited from earlier work
Culex = details: cited from earlier work
[1] = share of drosophila in solvent tube (AcOEt), product concentration not given
[2] = 10% solution of product, share of drosophila in EtOH tube
[3] = 10% solution of product, share of drosophila in product tube versus EtOH tube
[4] = 20% solution of product, share of drosophila in EtOH tube
[5] = 20% solution of product, share of drosophila in product tube versus EtOH tube
[6] = share of drosophila in product tube versus EtOH tube after 22 hours, product concentration not given
[7] = share of drosophila in solvent tube (filter paper + EtOH) after 22 hours, product concentration not given
[8] = 5% solution of product, share of drosophila in EtOH tube
[9] = 5% solution of product, share of drosophila in product tube versus EtOH tube

Structure (SMILES): C=CCOc1ccc2ccc(=O)oc2c1 [EV04032]
- In vivo tests: Tube AcOEt (drosophila; [1]): 62.25%

Structure (SMILES): CCC(C)Oc1ccc2ccc(=O)oc2c1 (stereo not shown) [EV04058]
- In vivo tests: Tube EtOH (drosophila; [2]): 91.22%
- In vivo tests: Tube product (drosophila; [3]): 8.78%
- In vivo tests: Tube EtOH (drosophila; [4]): 88.02%
- In vivo tests: Tube product (drosophila; [5]): 11.98%

Structure (SMILES): CCC(C)Oc1ccc2ccc(=O)oc2c1 (stereo not shown) [EV04070]
- In vivo tests: Tube EtOH (drosophila; [2]): 92.79%
- In vivo tests: Tube product (drosophila; [3]): 7.21%
- In vivo tests: Tube EtOH (drosophila; [4]): 91.34%
- In vivo tests: Tube product (drosophila; [5]): 8.66%
- repellent or attractant activity against drosophila, in words (drosophila): significant repellent activity

Structure (SMILES): C=C(C)C1CC=C(COc2ccc3ccc(=O)oc3c2)CC1 (stereo not shown) [EV04090]
- In vivo tests: Tube CH2Cl2 (drosophila; share of drosophila in solvent tube (CH2Cl2), product concentration not given): 70.20%
- Repulsive Index (RI) (drosophila; solvent CH2Cl2 according to Table 2, Tested Concentration 0.666 mmol/mL): 0.404

Structure (SMILES): CCC(C)COc1ccc2ccc(=O)oc2c1 (stereo not shown) [EV04094]
- In vivo tests: Tube EtOH (drosophila; [2]): 89.63%
- In vivo tests: Tube product (drosophila; [3]): 10.37%
- In vivo tests: Tube EtOH (drosophila; [4]): 86.47%
- In vivo tests: Tube product (drosophila; [5]): 13.53%

Structure (SMILES): CCC(CC)Oc1ccc2ccc(=O)oc2c1 [EV04114]
- In vivo tests: Tube EtOH (drosophila; [2]): 88.00%
- In vivo tests: Tube product (drosophila; [3]): 12.00%
- In vivo tests: Tube EtOH (drosophila; [4]): 93.09%
- In vivo tests: Tube product (drosophila; [5]): 6.91%
- repellent or attractant activity against drosophila, in words (drosophila): significant repellent activity

Structure (SMILES): CC(=O)OC(C)C(=O)Oc1ccc2ccc(=O)oc2c1 (stereo not shown) [EV04122]
- In vivo tests: Tube product (drosophila; [6]): 68.18%
- In vivo tests: Tube EtOH (drosophila; [7]): 31.82%

Structure (SMILES): CCCCN(CCCC)C(=O)COc1ccc2ccc(=O)oc2c1 [EV05120]
- RI (FIG. 2 and 3) (drosophila; 10% solution in EtOH): ~0.8
- In vivo tests: Tube EtOH (drosophila; [2]): 90.36%
- In vivo tests: Tube product (drosophila; [3]): 9.64%
- RI (FIG. 2 and 3) (drosophila; 20% solution in EtOH): ~0.7
- In vivo tests: Tube EtOH (drosophila; [4]): 85.58%
- In vivo tests: Tube product (drosophila; [5]): 14.42%
- repellent or attractant activity against drosophila, in words (drosophila): acted as repellents

Structure (SMILES): CCCCN(CCCC)C(=O)c1ccc2ccc(=O)oc2c1 [EV05138]
- In vivo tests: Tube EtOH (drosophila; [2]): 82.54%
- In vivo tests: Tube product (drosophila; [3]): 17.46%
- In vivo tests: Tube EtOH (drosophila; [4]): 86.27%
- In vivo tests: Tube product (drosophila; [5]): 13.73%

Structure (SMILES): CC[C@H](C)OC(=O)c1ccc2ccc(=O)oc2c1 [EV05178]
- RI (FIG. 2 and 3) (drosophila; 10% solution in EtOH): ~0.07
- In vivo tests: Tube EtOH (drosophila; [2]): 54.77%
- In vivo tests: Tube product (drosophila; [3]): 45.23%
- RI (FIG. 2 and 3) (drosophila; 20% solution in EtOH): ~0.7
- In vivo tests: Tube EtOH (drosophila; [4]): 85.50%
- In vivo tests: Tube product (drosophila; [5]): 14.50%

Structure (SMILES): CCC(CC)Oc1ccc2oc(=O)ccc2c1 [EV06018]
- In vivo tests: Tube AcOEt (drosophila; [1]): 81.07%

Structure (SMILES): CCCCCOc1ccc2ccc(=O)oc2c1 [EV06026]
- In vivo tests: Tube EtOH (drosophila; [2]): 87.53%
- In vivo tests: Tube product (drosophila; [3]): 12.47%
- In vivo tests: Tube EtOH (drosophila; [4]): 94.12%
- In vivo tests: Tube product (drosophila; [5]): 5.88%

Structure (SMILES): CC(C)C(C)Oc1ccc2ccc(=O)oc2c1 (stereo not shown) [EV06028]
- In vivo tests: Tube EtOH (drosophila; [2]): 86.74%
- In vivo tests: Tube product (drosophila; [3]): 13.26%
- In vivo tests: Tube EtOH (drosophila; [4]): 94.21%
- In vivo tests: Tube product (drosophila; [5]): 5.79%

Structure (SMILES): CC(C)CCOc1ccc2ccc(=O)oc2c1 [EV06036]
- In vivo tests: Tube EtOH (drosophila; [2]): 86.10%
- In vivo tests: Tube product (drosophila; [3]): 13.90%
- In vivo tests: Tube EtOH (drosophila; [4]): 86.63%
- In vivo tests: Tube product (drosophila; [5]): 13.73%

Structure (SMILES): CCCC(C)Oc1ccc2ccc(=O)oc2c1 (stereo not shown) [EV06044]
- In vivo tests: Tube EtOH (drosophila; [2]): 83.91%
- In vivo tests: Tube product (drosophila; [3]): 16.08%
- In vivo tests: Tube EtOH (drosophila; [4]): 96.12%
- In vivo tests: Tube product (drosophila; [5]): 3.82%
- repellent or attractant activity against drosophila, in words (drosophila): significant repellent activity

Structure (SMILES): CCC(CC)Oc1cc(=O)oc2ccccc12 [EV06062]
- repellent activity compared with DEET, in words (drosophila): remains as good a repellent as DEET
- In vivo tests: Tube EtOH (drosophila; 1% solution of product, share of drosophila in EtOH tube): 87.08%
- In vivo tests: Tube product (drosophila; 1% solution of product, share of drosophila in product tube versus EtOH tube): 12.92%
- In vivo tests: Tube EtOH (drosophila; [8]): 96.08%
- In vivo tests: Tube product (drosophila; [9]): 3.20%
- In vivo tests: Tube EtOH (drosophila; [2]): 93.10%
- In vivo tests: Tube product (drosophila; [3]): 6.90%
- In vivo tests: Tube EtOH (drosophila; [4]): 98.26%
- In vivo tests: Tube product (drosophila; [5]): 1.74%
- Repulsive Index (RI) (drosophila; EtOH, fourth Tested Concentration, 0.056 mmol/mL (1% solution)): 0.742

Structure (SMILES): CCC(C)Oc1ccc2oc(=O)ccc2c1 (stereo not shown) [EV06068]
- In vivo tests: Tube EtOH (drosophila; [2]): 90.91%
- In vivo tests: Tube product (drosophila; [3]): 9.09%
- In vivo tests: Tube EtOH (drosophila; [4]): 93.85%
- In vivo tests: Tube product (drosophila; [5]): 6.15%

Structure (SMILES): CCC(C)Oc1cc(=O)oc2ccccc12 (stereo not shown) [EV06088]
- In vivo tests: Tube EtOH (drosophila; [2]): 90.50%
- In vivo tests: Tube product (drosophila; [3]): 9.50%
- In vivo tests: Tube EtOH (drosophila; [4]): 91.04%
- In vivo tests: Tube product (drosophila; [5]): 8.96%

Structure (SMILES): CCCCCCCCN(CCCCCCCC)C(=O)COc1ccc2ccc(=O)oc2c1 [EV06092]
- In vivo tests: Tube product (drosophila; [6]): 32.34%
- In vivo tests: Tube EtOH (drosophila; [7]): 67.66%

Structure (SMILES): CCCCCCCCN(CCCCCCCC)C(=O)c1ccc2ccc(=O)oc2c1 [EV06096]
- In vivo tests: Tube EtOH (drosophila; [2]): 67.84%
- In vivo tests: Tube product (drosophila; [3]): 32.16%
- In vivo tests: Tube EtOH (drosophila; [4]): 95.33%
- In vivo tests: Tube product (drosophila; [5]): 4.67%
- repellent or attractant activity against drosophila, in words (drosophila): acted as repellents

Structure (SMILES): CCCC(C)Oc1cc(=O)oc2ccccc12 (stereo not shown) [EV06098]
- In vivo tests: Tube EtOH (drosophila; [2]): 79.29%
- In vivo tests: Tube product (drosophila; [3]): 20.71%
- In vivo tests: Tube EtOH (drosophila; [4]): 97.57%
- In vivo tests: Tube product (drosophila; [5]): 2.43%

Structure (SMILES): CCCCCCOc1ccc2ccc(=O)oc2c1 [EV06110]
- In vivo tests: Tube EtOH (drosophila; [2]): 91.09%
- In vivo tests: Tube product (drosophila; [3]): 8.91%
- In vivo tests: Tube EtOH (drosophila; [4]): 89.06%
- In vivo tests: Tube product (drosophila; [5]): 10.94%

Structure (SMILES): CC(C)C(C)Oc1cc(=O)oc2ccccc12 (stereo not shown) [EV06128]
- In vivo tests: Tube EtOH (drosophila; [4]): 66.83%
- In vivo tests: Tube product (drosophila; [5]): 33.17%

Structure (SMILES): CCCCCOc1cc(=O)oc2ccccc12 [EV06136]
- In vivo tests: Tube AcOEt (drosophila; 20% solution of product, share of drosophila in AcOEt tube): 88.56%
- In vivo tests: Tube product (drosophila; 20% solution of product, share of drosophila in product tube versus AcOEt tube): 11.44%

Structure (SMILES): CC(C)CCOc1cc(=O)oc2ccccc12 [EV06140]
- In vivo tests: Tube EtOH (drosophila; [2]): 90.10%
- In vivo tests: Tube product (drosophila; [3]): 9.90%
- In vivo tests: Tube EtOH (drosophila; [4]): 91.92%
- In vivo tests: Tube product (drosophila; [5]): 8.08%

Structure (SMILES): CCCCCCCCOc1ccc2ccc(=O)oc2c1 [EV06144]
- In vivo tests: Tube EtOH (drosophila; [8]): 91.35%
- In vivo tests: Tube product (drosophila; [9]): 8.65%
- In vivo tests: Tube EtOH (drosophila; [2]): 90.00%
- In vivo tests: Tube product (drosophila; [3]): 10.00%
- In vivo tests: Tube EtOH (drosophila; [4]): 91.73%
- In vivo tests: Tube product (drosophila; [5]): 8.37%

Structure (SMILES): CCCCCCC(C)Oc1ccc2ccc(=O)oc2c1 (stereo not shown) [EV06148]
- repellent activity compared with DEET, in words (drosophila): remained as effective a repellent as DEET
- In vivo tests: Tube EtOH (drosophila; [2]): 93.66%
- In vivo tests: Tube product (drosophila; [3]): 6.34%
- In vivo tests: Tube EtOH (drosophila; [4]): 96.00%
- In vivo tests: Tube product (drosophila; [5]): 4.00%

Structure (SMILES): CCCC(C)Oc1ccc2oc(=O)ccc2c1 (stereo not shown) [EV06154]
- repellent activity compared with DEET, in words (drosophila): performed effectively as a repellent
- In vivo tests: Tube EtOH (drosophila; [2]): 93.03%
- In vivo tests: Tube product (drosophila; [3]): 6.97%
- In vivo tests: Tube EtOH (drosophila; [4]): 96.57%
- In vivo tests: Tube product (drosophila; [5]): 3.43%

Structure (SMILES): CC(C)(C)COc1ccc2ccc(=O)oc2c1 [EV06162]
- repellent or attractant activity against drosophila, in words (drosophila): strong drosophila attractant

Structure (SMILES): CCC(C)NC(=O)c1ccc2ccc(=O)oc2c1 (stereo not shown) [EV06166]
- RI against drosophila (FIG. 1) (drosophila): ~0.2

Structure (SMILES): CCC(C)NC(=O)COc1ccc2ccc(=O)oc2c1 (stereo not shown) [EV06178]
- RI against drosophila (FIG. 1) (drosophila): ~−0.2
- repellent or attractant activity against drosophila, in words (drosophila): appeared to provide attractant activity

Structure (SMILES): CCC(C)OC(=O)N1CCCCC1CCO (stereo not shown) [picaridine, hydroxyethyl isobutyl piperidine carboxylate]
- protection against Aedes mosquitoes (Aedes mosquitoes; 7% solution): little or no protection
- protection time against Aedes (Aedes mosquitoes; 15% solution): about one
- RI against drosophila (FIG. 1) (drosophila): > 0.6
- protection time against Culex (Culex; 7% solution): about 2.5 hours
- protection time against Culex (Culex; 15% solution): 4.8 h
